The numbers were not newly measured in patent US9737548B2, “Pharmaceutical formulations and uses thereof in the treatment of female sexual dysfunction” (EB IP LYBRIDO B.V., priority 2005, dated 2017), which cites them from elsewhere.

For data set [1] the following is noted: serum concentration.
For data set [2] the following is noted: short-lasting peak formulation.

For `COc1cc2nc(N3CCN(C(=O)c4ccco4)CC3)nc(N)c2cc1OC` [prazosin], the Tmax in data set [1] is 1 to 2 h.

Take `C[C@]12CC[C@H]3[C@@H](CCC4=CC(=O)CC[C@@]43C)[C@@H]1CC[C@@H]2O` [testosterone, 17-β-hydroxyandrost-4-en-3-one]: in data set [2], the “time after administration at which peak serum level of testosterone is obtained” value is 1 to 20 min and the “time after which testosterone serum level is back to the level before administration” value was “approximately 120 minutes”.

Broadly, the Tmax is the time at which the peak concentration occurs.
